The text below walks through data of patent US20230117034A1, “PYRAZOLOTRIAZINES” (Bayer Aktiengesellschaft, priority 2019, published 2023).

For one experiment, the target named is CDK12/CycK (Homo sapiens, UniProt Q9NYV4). Description: CDK12/CycK high ATP kinase assay (TR-FRET, 2 mM ATP). The experiment is classed as biochemical. The conditions noted are these: 2 mM ATP (high ATP); median; read-out: CDK12/CyclinK, 2 mM ATP (high ATP), IC50-[mol/l] (median). The method, boiled down:
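Read-out is TR-FRET (Eu-anti-rabbit IgG, anti-phospho-c-Myc Ser62 antibody, streptavidin-XL665) after EDTA stop. Reaction ran 60 min at 22 °C using 1 µM biotin-peptide and high ATP (2 mM) with roughly 0.75 nM recombinant CDK12/CycK, after 15 min compound pre-binding; normalised emission ratios yield IC50.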
(Time-resolved FRET reads energy transfer from a long-lived donor to a nearby acceptor.)

Experiment [1] concerns BRCA1 mRNA expression in MDA-MB-231 cells. Description: qRT-PCR assay: BRCA1 mRNA expression in MDA-MB-231. The experiment is classed as cell-based, human. The following applies: Homo sapiens, MDA-MB-231, Inhibition of BRCA1 mRNA expression in MDA-MB-231 cells; median; read-out: RTqPCR-MDA-MB-231, IC50, BRCA1 (median). The method, boiled down:
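BRCA1 transcript by RT-qPCR relative to GAPDH, from 600 ng RNA converted to cDNA. MDA-MB-231 cells plated at 200,000/well received test compound continuously for 24 h, starting 24 h post-seeding.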
Background: Quantitative PCR measures a nucleic acid by following its amplification.

In experiment [2] the test system is MDA-MB-231, human breast cancer cells. The experiment is described as follows: Proliferation assay MDA-MB-231 (crystal violet, 4 days). The experiment is classed as cell-based. The conditions noted are these: MDA-MB-231 cells, median, read-out: Prolif-MDA MB-231, IC50-[mol/l] (median). The method, boiled down: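 IC50 from a 4-parameter fit of crystal violet absorbance (595 nm), scaled between the day-of-dosing plate (0%) and vehicle cells (100%). MDA-MB-231 or CAL-120 cells were treated for 4 days with 0.01–10 micromol/L compound in 0.1% DMSO after 24 h attachment.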

Read-outs that look alike come from different tables or passages of the source. A value given as a limit tells only on which side of the number the result lay.

Chain of CDK12/CycK (Q9NYV4 with tags, fused parts or gaps): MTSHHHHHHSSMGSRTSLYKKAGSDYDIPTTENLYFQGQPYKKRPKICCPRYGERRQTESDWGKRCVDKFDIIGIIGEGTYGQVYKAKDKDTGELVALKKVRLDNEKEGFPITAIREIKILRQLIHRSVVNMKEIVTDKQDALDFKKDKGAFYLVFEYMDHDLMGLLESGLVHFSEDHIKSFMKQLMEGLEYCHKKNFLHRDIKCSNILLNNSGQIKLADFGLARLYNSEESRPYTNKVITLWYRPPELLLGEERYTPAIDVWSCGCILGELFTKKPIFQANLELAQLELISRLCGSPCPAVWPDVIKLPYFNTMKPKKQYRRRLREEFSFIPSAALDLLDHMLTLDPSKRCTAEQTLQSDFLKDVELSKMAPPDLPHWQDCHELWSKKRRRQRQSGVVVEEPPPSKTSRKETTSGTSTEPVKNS
Chain of CDK12/CycK (O75909 1-300 partner limits assumed): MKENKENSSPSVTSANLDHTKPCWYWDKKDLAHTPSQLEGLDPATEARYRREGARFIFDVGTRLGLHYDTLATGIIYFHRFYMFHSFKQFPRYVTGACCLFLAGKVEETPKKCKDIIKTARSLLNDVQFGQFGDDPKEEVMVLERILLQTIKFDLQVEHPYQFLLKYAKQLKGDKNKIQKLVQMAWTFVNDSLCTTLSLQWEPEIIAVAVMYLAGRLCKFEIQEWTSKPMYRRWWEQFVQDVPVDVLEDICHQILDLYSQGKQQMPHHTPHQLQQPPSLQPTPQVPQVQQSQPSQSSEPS

As to `N[C@H]1CCN(c2nc(NCc3nc4ccccc4[nH]3)n3ncc(Br)c3n2)C1` [Example 245, 2-[(3S)-3-aminopyrrolidin-1-yl]-N-[(1H-benzimidazol-2-yl)methyl]-8-bromopyrazolo[1,5-a][1,3,5]triazin-4-amine], the IC50 at CDK12/CycK is more than 15800 nM; in experiment [1] it was 7.35 nM; in experiment [2] (Homo sapiens, MDA-MB-231, 96 h), 14.3 nM.
`Brc1cnn2c(NCc3nc4ccccc4[nH]3)nc(N3CC4CCNC4C3)nc12` (centres unmarked) [Example 271, 2-(2,3,3a,4,6,6a-hexahydro-1H-pyrrolo[2,3-c]pyrrol-5-yl)-N-(1H-benzimidazol-2-ylmethyl)-8-bromo-pyrazolo[1,5-a][1,3,5]triazin-4-amine]: the IC50 was more than 20000 nM at CDK12/CycK; 13.9 nM in experiment [1]; 40 nM in experiment [2] (Homo sapiens, MDA-MB-231, 96 h).
Regarding `N[C@H]1[C@@H]2C[C@H]1CN(c1nc(NCc3nc4ccccc4[nH]3)n3ncc(Br)c3n1)C2` [Example 288, 2-[(1R,5S,6r)-6-amino-3-azabicyclo[3.1.1]heptan-3-yl]-N-[(1H-benzimidazol-2-yl)methyl]-8-bromopyrazolo[1,5-a][1,3,5]triazin-4-amine], the IC50 turned out to be 3380 nM at CDK12/CycK; 2.69 nM in experiment [1]; 5.68 nM in experiment [2] (Homo sapiens, MDA-MB-231, 96 h).
As to `Brc1cnn2c(NCc3nc4ccccc4[nH]3)nc(N3C[C@@H]4CN[C@@H]4C3)nc12.O=C(O)C(F)(F)F` [Example 267, trifluoroacetic acid-N-[(1H-benzimidazol-2-yl)methyl]-8-bromo-2-[(1S,5S)-3,6-diazabicyclo[3.2.0]heptan-3-yl]pyrazolo[1,5-a][1,3,5]triazin-4-amine (1/1)], the IC50 on CDK12/CycK is more than 20000 nM; in experiment [2] (Homo sapiens, MDA-MB-231, 96 h), 107 nM.
`C[C@@H]1CN(c2nc(NCc3nc4ccccc4[nH]3)n3ncc(C4CC4)c3n2)C[C@H](C)N1` [Example 248, N-[(1H-benzimidazol-2-yl)methyl]-8-cyclopropyl-2-[(3R,5S)-3,5-dimethylpiperazin-1-yl]pyrazolo[1,5-a][1,3,5]triazin-4-amine]: the IC50 came to 9200 nM on CDK12/CycK; 1.6 nM in experiment [1]; 12 nM in experiment [2] (Homo sapiens, MDA-MB-231, 96 h).
`Fc1ccc2[nH]c(CNc3nc(N4CCOCC4)nc4c(C5CCOCC5)cnn34)nc2c1F` [Example 276, N-[(4,5-difluoro-1H-benzimidazol-2-yl)methyl]-2-(morpholin-4-yl)-8-(oxan-4-yl)pyrazolo[1,5-a][1,3,5]triazin-4-amine]: the IC50 at CDK12/CycK was more than 20000 nM; in experiment [2] (Homo sapiens, MDA-MB-231, 96 h), 258 nM.
For the compound `CC1CN(C)CCN1c1nc(NCc2nc3ccccc3[nH]2)n2ncc(Br)c2n1` (single isomer, unassigned; enantiomer 2) [Example 261, N-(1H-benzimidazol-2-ylmethyl)-8-bromo-2-[(2R or S)-2,4-dimethylpiperazin-1-yl]pyrazolo[1,5-a][1,3,5]triazin-4-amine (Enantiomer 2)], the figures for the IC50 (on CDK12/CycK; in experiment [2]) were more than 18700 nM and 99.9 nM, respectively.
As to `OCC1CN(c2nc(NCc3nc4ccccc4[nH]3)n3ncc(Br)c3n2)C1` [Example 304, [1-(4-{[(1H-benzimidazol-2-yl)methyl]amino}-8-bromopyrazolo[1,5-a][1,3,5]triazin-2-yl)azetidin-3-yl]methanol], the IC50 on CDK12/CycK came out at 12500 nM; in experiment [2] (Homo sapiens, MDA-MB-231, 96 h) it was 299 nM.
For the compound `Brc1cnn2c(NCc3nc4cccnc4[nH]3)nc(N3CCNCC3)nc12.O=CO` [Example 19, 8-bromo-N-[(3H-imidazo[4,5-b]pyridin-2-yl)methyl]-2-(piperazin-1-yl)pyrazolo[1,5-a][1,3,5]triazin-4-amine formic acid salt], the IC50 on CDK12/CycK is 11500 nM.
In the case of `Brc1cnn2c(NCc3nc4ccccc4[nH]3)nc(N3C[C@H]4CN[C@H]4C3)nc12.O=C(O)C(F)(F)F` [Example 255, trifluoroacetic acid-N-[(1H-benzimidazol-2-yl)methyl]-8-bromo-2-[(1R,5R)-3,6-diazabicyclo[3.2.0]heptan-3-yl]pyrazolo[1,5-a][1,3,5]triazin-4-amine (1/1)], the IC50 on CDK12/CycK was more than 20000 nM; in experiment [2] (Homo sapiens, MDA-MB-231, 96 h), 61 nM.
As to `CC(C)CNc1nc(NCc2nc3ccccc3[nH]2)n2ncc(Br)c2n1` [Example 285, N^4-[(1H-benzimidazol-2-yl)methyl]-8-bromo-N^2-(2-methylpropyl)pyrazolo[1,5-a][1,3,5]triazine-2,4-diamine], the IC50 on CDK12/CycK came out at 6440 nM; in experiment [2] (Homo sapiens, MDA-MB-231, 96 h), 90.6 nM.
`FC(F)(F)Cc1cnn2c(NCc3nc4ccccc4[nH]3)nc(N3CCOCC3)nc12.O=CO` [Example 265, formic acid-N-[(1H-benzimidazol-2-yl)methyl]-2-(morpholin-4-yl)-8-(2,2,2-trifluoroethyl)pyrazolo[1,5-a][1,3,5]triazin-4-amine (1/1)]: the IC50 on CDK12/CycK was more than 16700 nM; in experiment [2] (Homo sapiens, MDA-MB-231, 96 h), 106 nM.
With `Fc1ccc2[nH]c(CNc3nc(N4CCOCC4)nc4c(C5CCCC5)cnn34)nc2c1F` [Example 262, 8-cyclopentyl-N-[(4,5-difluoro-1H-benzimidazol-2-yl)methyl]-2-(morpholin-4-yl)pyrazolo[1,5-a][1,3,5]triazin-4-amine], the IC50 on CDK12/CycK is more than 5710 nM; in experiment [2] (Homo sapiens, MDA-MB-231, 96 h), 101 nM.
With `NC1(C(F)(F)F)CCN(c2nc(NCc3nc4ccccc4[nH]3)n3ncc(Br)c3n2)C1` (centres unmarked) [Example 266, 2-[3-amino-3-(trifluoromethyl)pyrrolidin-1-yl]-N-(1H-benzimidazol-2-ylmethyl)-8-bromo-pyrazolo[1,5-a][1,3,5]triazin-4-amine], the IC50 is 3480 nM on CDK12/CycK and 133 nM in experiment [2] (Homo sapiens, MDA-MB-231, 96 h).
`Fc1ccc2[nH]c(CNc3nc(N4CCOCC4)nc4c(Br)cnn34)nc2c1F` [Example 25, 8-bromo-N-[(4,5-difluoro-1H-benzimidazol-2-yl)methyl]-2-(morpholin-4-yl)pyrazolo[1,5-a][1,3,5]triazin-4-amine]: the IC50 at CDK12/CycK is 731 nM; in experiment [1], 3.01 nM.
`CC1(O)CCN(c2nc(NCc3nc4ccccc4[nH]3)n3ncc(Br)c3n2)C1` (single isomer, unassigned) [Example 282, (3R or S)-1-(4-{[(1H-benzimidazol-2-yl)methyl]amino}-8-bromopyrazolo[1,5-a][1,3,5]triazin-2-yl)-3-methylpyrrolidin-3-ol]: the IC50 on CDK12/CycK is more than 8950 nM; in experiment [2] (Homo sapiens, MDA-MB-231, 96 h) it was 178 nM.
`CN1CCN(c2nc(NCc3nc4ccccc4[nH]3)n3ncc(Br)c3n2)C(CO)C1` (single isomer, unassigned) [Example 280, [(2R or S)-1-(4-{[(1H-benzimidazol-2-yl)methyl]amino}-8-bromopyrazolo[1,5-a][1,3,5]triazin-2-yl)-4-methylpiperazin-2-yl]methanol]: the IC50 is 14500 nM at CDK12/CycK and 231 nM in experiment [2] (Homo sapiens, MDA-MB-231, 96 h).
As for `c1ccc2[nH]c(CNc3nc(N4CCOCC4)nc4c(C5CCCC5)cnn34)nc2c1` [Example 244, N-[(1H-benzimidazol-2-yl)methyl]-8-cyclopentyl-2-(morpholin-4-yl)pyrazolo[1,5-a][1,3,5]triazin-4-amine], the IC50 on CDK12/CycK is more than 20000 nM; in experiment [2] (Homo sapiens, MDA-MB-231, 96 h), 501 nM.
Take `C[C@@]1(O)CCN(c2nc(NCc3nc4ccccc4[nH]3)n3ncc(Br)c3n2)C1` (single isomer, unassigned) [Example 281, (3R or S)-1-(4-{[(1H-benzimidazol-2-yl)methyl]amino}-8-bromopyrazolo[1,5-a][1,3,5]triazin-2-yl)-3-methylpyrrolidin-3-ol]: the IC50 was more than 16900 nM at CDK12/CycK and 306 nM in experiment [2] (Homo sapiens, MDA-MB-231, 96 h).
